Reference: US20130274174A1, “THERAPEUTIC COMBINATION OF DAPTOMYCIN AND PROTEIN SYNTHESIS INHIBITOR ANTIBIOTIC, AND METHODS OF USE” (priority 2011, published 2013)

Key:
Assay in all cases: FIC checkerboard broth microdilution
Type in all cases: cell-based
[1] = test system: Enterococcus faecalis 795 (VSE); settings: agent alone
Procedure: (§1) Test articles of stock solutions of daptomycin (Cubist, lot MCB2007) and TR-700 were prepared at 40 times the final target concentration in DMSO:water (1:1). DMSO was added first, the solutions were allowed to stand for 60 minutes and then the water was added. TR-700 formed a precipitate above 1280 μg/ml; therefore, this was the highest concentration used. […] The final DMSO concentration was 2.5%. The final drug concentrations in the FIC assay plates were set to bracket the MIC value of each test article for each test organism, unless the strain was totally resistant to the test article.
(§2) The test organisms were originally received from clinical sources, or from the American Type Culture Collection. Upon receipt in our laboratory, the isolates were streaked onto the appropriate growth medium: Tryptic Soy Agar II (Becton Dickinson, Sparks, Md.) supplemented with 5% defibrinated sheep blood for streptococci, and unsupplemented Tryptic Soy Agar II for all other organisms. Colonies were harvested from these plates and a cell suspension was prepared in Tryptic Soy Broth (Becton Dickinson) containing cryoprotectant. Aliquots were then frozen at −80° C. On the day prior to assay, the frozen seeds of the organisms to be tested in that session were thawed and streaked for isolation onto the appropriate agar medium plates and incubated overnight at 35° C. The test organisms were: • Staphylococcus aureus 2053 (methicillin-resistant) • Enterococcus faecalis 795 (vancomycin-susceptible) • Streptococcus pyogenes 717 • Streptococcus pneumoniae 880 (penicillin-resistant) • Escherichia coli 102 (ATCC 25922)
(§3) Streptococci were tested in Mueller Hinton II Broth (Becton Dickinson; Lot 7024879 and 7143673) supplemented with 2% lysed horse blood (Cleveland Scientific, Bath, Ohio; Lot H10472). All other organisms were tested in Mueller Hinton II Broth. The broth was prepared at 1.05× normal weight/volume to offset the 5% volume of the drugs in the final test plates.
(§4) FIC values were determined using a broth microdilution method previously described. See, Sweeney, M T and Zurenko, G E. 2003. In vitro activities of linezolid combined with other antimicrobial agents against staphylococci, enterococci, pneumococci and selected Gram-negative organisms. Antimicrob. Agents Chemother. 47:1902-1906. Automated liquid handlers (Multidrop 384, Labsystems, Helsinki, Finland; Biomek 2000 and Multimek 96, Beckman Coulter, Fullerton Calif.) were used to conduct serial dilutions and liquid transfers.
(§5) The wells (columns 2-12) of standard 96-well microdilution plates (Falcon 3918) were filled with 150 μL of 50% DMSO using the Multidrop 384. Column 1 wells were filled with 300 μl of the 40× stock solutions. […]

[2] = test system: Staphylococcus aureus 2053 (MRSA); settings: agent alone
Procedure: as §1, §2, §3, §4, §5

[3] = test system: Streptococcus pneumoniae 880; settings: agent alone
Procedure: as §1, §2, §3, §4, §5

[4] = test system: Streptococcus pyogenes 717
Procedure: as §1, §2, §3, §4, §5

## Cn1nnc(-c2ccc(-c3ccc(N4C[C@H](CO)OC4=O)cc3F)cn2)n1 [TR-700, Tedizolid]
[1]
  MIC: 0.5 mg/L
[2]
  MIC: 0.5 mg/L
[3]
  MIC: 0.25 mg/L
[4]
  MIC: 0.125 mg/L
